The text below walks through data of US8945862B2, “Triple-fusion constructs and methods of monitoring human embryonic stem cells” (The Board of Trustees of the Leland Stanford Junior …, priority 2007, dated 2015).

The experiment deals with H9^DF hESCs. Briefly: Bioluminescent imaging of transplanted hESC survival under immunosuppressive drug treatment. Type of experiment: in vivo, BALB/c mice. As to conditions: for BLI signal by post-transplant day 10: single drug treatment groups. Here is the method:
H1, H9 and H9DF hESCs were initially maintained on top of murine embryonic fibroblasts feeder (MEF) layers as detailed in SI Methods. To prevent contamination of the transplanted hESC population with MEF, hESC colonies were separated from MEF by incubation with dispase (Invitrogen) and subcultured on feeder-free matrigel (hESC qualified, BD Biosciences) coated 6-well plates in mTeSR™ 1 maintenance medium (Stem Cell Technologies) for 2 to 5 passages. MHC expression on hESCs was evaluated by flow cytometry as detailed in SI Methods. Shortly prior to transplantation, hESCs were trypsinated, and resuspended in sterile PBS at 1×10^6 cells per 20 μl. hESC transplantation was performed by direct injection into gastrocnemius muscles of recipient mice (using a 29.5 gauge insulin syringe.
BLI was performed using the Xenogen In Vivo Imaging System as previously described (38). Briefly, mice were anesthetized with isoflurane and D-luciferin was administered intraperitoneally at a dose of 375 mg/kg body weight. At the time of imaging, animals were placed in a light-tight chamber, and photons emitted from luciferase expressing hESCs transplanted into the animals were collected with integration times of 5 sec-5 min, depending on the intensity of the bioluminescence emission. The same mice were scanned repetitively as per the study design. BLI signal was quantified in units of photons per second (Total flux) and presented as Log[photons/sec].

In the case of `C=CC[C@@H]1/C=C(\C)C[C@H](C)C[C@H](OC)[C@H]2O[C@@](O)(C(=O)C(=O)N3CCCC[C@H]3C(=O)O[C@H](/C(C)=C/[C@@H]3CC[C@@H](O)[C@H](OC)C3)[C@H](C)[C@@H](O)CC1=O)[C@H](C)C[C@@H]2OC` [TAC, Tacrolimus], the “BLI signal by post-transplant day 10” value is listed as “decreased to background levels”.

`CO[C@H]1C[C@@H]2CC[C@@H](C)[C@@](O)(O2)C(=O)C(=O)N2CCCC[C@H]2C(=O)O[C@H]([C@H](C)C[C@@H]2CC[C@@H](O)[C@H](OC)C2)CC(=O)[C@H](C)/C=C(\C)[C@@H](O)[C@@H](OC)C(=O)[C@H](C)C[C@H](C)/C=C/C=C/C=C/1C` [SIR, sirolimus]: the “BLI signal at day 7” value (monotherapy, 1×10^6 H9^DF hESCs in gastrocnemius muscle, NT 4.98±0.04, P<0.05) came out at 6.4±0.29 Log^[photons/sec].

Regarding `COc1c(C)c2c(c(O)c1C/C=C(\C)CCC(=O)OCCN1CCOCC1)C(=O)OC2` [MMF, mycophenolate mofetil], the “BLI signal by post-transplant day 10” value is listed as “decreased to background levels”. Besides, the “improvement of hESC survival by addition of MMF” value (over single TAC and/or SIR treatment) is given as “did not result in significant improvement”.
